Reference: PubChem BioAssay AID256 (DTP/NCI, 2004)
“And” between values parts separate entries of the source, which are not always exact repeats. Identical values can stand only once. Toxic doses and inconclusive results are not listed. The calls were made as follows: active = survival T/C of 150% or more; inactive = T/C below 125% in these data.

Test system: CD2F1 mice, L1210 leukemia ip, survival T/C
Test: NCI In Vivo Anticancer Drug Screen. Data for tumor model L1210 Leukemia (intraperitoneal) in CD2F1 (CDF1) mice
Conditions: higher = longer survival
How it was run: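 Tumor-bearing mice (transplanted tumor) were split into treated and vehicle control groups, and the measured endpoint of each treated group was divided by that of its vehicle controls.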

[1] = endpoint: mean survival time, dose: 12.5 mg/kg/injection, schedule: Q01DX009 (ip), vehicle: saline with Tween-80
[2] = endpoint: mean survival time, dose: 25.0 mg/kg/injection, schedule: Q01DX009 (ip), vehicle: saline with Tween-80
[3] = endpoint: mean survival time, dose: 50.0 mg/kg/injection, schedule: Q01DX009 (ip), vehicle: saline with Tween-80
[4] = endpoint: mean survival time, dose: 100.0 mg/kg/injection, schedule: Q01DX009 (ip), vehicle: saline with Tween-80
[5] = endpoint: mean survival time, dose: 200.0 mg/kg/injection, schedule: Q01DX009 (ip), vehicle: saline with Tween-80
[6] = endpoint: mean survival time, dose: 400.0 mg/kg/injection, schedule: Q01DX009 (ip), vehicle: saline with Tween-80
[7] = endpoint: mean survival time, dose: 100.0 mg/kg/injection, schedule: Q01DX001 (ip), vehicle: saline with Tween-80
[8] = endpoint: mean survival time, dose: 200.0 mg/kg/injection, schedule: Q01DX001 (ip), vehicle: saline with Tween-80
[9] = endpoint: mean survival time, dose: 400.0 mg/kg/injection, schedule: Q01DX001 (ip), vehicle: saline with Tween-80
[10] = endpoint: mean survival time, dose: 100.0 mg/kg/injection, schedule: Q01DX001 (ip), vehicle: saline
[11] = endpoint: mean survival time, dose: 100.0 mg/kg/injection, schedule: Q04DX003 (ip), vehicle: saline with Tween-80
[12] = endpoint: mean survival time, dose: 200.0 mg/kg/injection, schedule: Q04DX003 (ip), vehicle: saline with Tween-80
[13] = endpoint: mean survival time, dose: 400.0 mg/kg/injection, schedule: Q04DX003 (ip), vehicle: saline with Tween-80

Measured: T/C

O=[N+]([O-])O.O=[N+]([O-])O.[NH-]C1CCCCC1[NH-].[Pt+2] (stereo unspecified)
inactive: endpoint: mean survival time, dose: 0.03 mg/kg/injection, schedule: Q01DX009 (ip), vehicle: other 120 % of control | endpoint: mean survival time, dose: 0.13 mg/kg/injection, schedule: Q04DX003 (ip), vehicle: other 120 % of control | endpoint: mean survival time, dose: 0.19 mg/kg/injection, schedule: Q04DX003 (ip), vehicle: saline 119 % of control | endpoint: mean survival time, dose: 0.25 mg/kg/injection, schedule: Q01DX009 (ip), vehicle: dextrose 98 % of control | endpoint: mean survival time, dose: 0.39 mg/kg/injection, schedule: Q01DX005 (ip), vehicle: saline 119 % of control | endpoint: mean survival time, dose: 0.39 mg/kg/injection, schedule: Q04DX003 (ip), vehicle: saline 120 % of control | endpoint: mean survival time, dose: 0.5 mg/kg/injection, schedule: Q01DX001 (ip), vehicle: other 113 % of control | endpoint: mean survival time, dose: 1.0 mg/kg/injection, schedule: Q01DX009 (ip), vehicle: dextrose 119 % of control | endpoint: mean survival time, dose: 1.0 mg/kg/injection, schedule: Q01DX009 (ip), vehicle: other 90 % of control | endpoint: mean survival time, dose: 3.12 mg/kg/injection, schedule: Q01DX005 (oral), vehicle: saline 97 % of control | endpoint: mean survival time, dose: 4.0 mg/kg/injection, schedule: Q04DX003 (ip), vehicle: other 95 % of control | endpoint: mean survival time, dose: 6.25 mg/kg/injection, schedule: Q01DX005 (oral), vehicle: saline 97 % of control | endpoint: mean survival time, dose: 12.5 mg/kg/injection, schedule: Q04DX003 (ip), vehicle: saline 100 % of control

O=CN(SSN(C=O)C1CCCCC1)C1CCCCC1
inactive: [1] 95 % of control and 103 % of control | [2] 100 % of control and 108 % of control | [3] 94 % of control and 105 % of control | [4] 94 % of control and 98 % of control | [5] 94 % of control and 103 % of control | [6] 93 % of control and 102 % of control

CCCOCCN=C(N)C(N)=NCCOCCC
inactive: endpoint: mean survival time, dose: 12.5 mg/kg/injection, schedule: Q04DX002 (ip), vehicle: saline with Tween-80 97 % of control | endpoint: mean survival time, dose: 25.0 mg/kg/injection, schedule: Q04DX002 (ip), vehicle: saline with Tween-80 89 % of control | endpoint: mean survival time, dose: 50.0 mg/kg/injection, schedule: Q04DX002 (ip), vehicle: saline with Tween-80 97 % of control

CC(C)OC(=O)Nc1ccccn1
inactive: endpoint: mean survival time, dose: 100.0 mg/kg/injection, schedule: Q04DX002 (ip), vehicle: saline with Tween-80 100 % of control | endpoint: mean survival time, dose: 200.0 mg/kg/injection, schedule: Q04DX002 (ip), vehicle: saline with Tween-80 100 % of control | endpoint: mean survival time, dose: 400.0 mg/kg/injection, schedule: Q04DX002 (ip), vehicle: saline with Tween-80 104 % of control

COC1OC2COc3ccccc3OC2C(NC(=O)Oc2ccccc2)C1O (stereo unspecified)
inactive: [7] 94 % of control | [8] 94 % of control | [9] 91 % of control

C/C=C1/OC(n2cnc3c(N)ncnc32)C(O)C1O (stereo unspecified)
inactive: endpoint: mean survival time, dose: 10.0 mg/kg/injection, schedule: Q01DX005 (ip), vehicle: distilled water + Tween-80 103 % of control | endpoint: mean survival time, dose: 20.0 mg/kg/injection, schedule: Q01DX005 (ip), vehicle: distilled water + Tween-80 107 % of control | endpoint: mean survival time, dose: 40.0 mg/kg/injection, schedule: Q01DX005 (ip), vehicle: distilled water + Tween-80 95 % of control | endpoint: mean survival time, dose: 80.0 mg/kg/injection, schedule: Q01DX005 (ip), vehicle: distilled water + Tween-80 100 % of control | endpoint: mean survival time, dose: 160.0 mg/kg/injection, schedule: Q01DX005 (ip), vehicle: distilled water + Tween-80 97 % of control

COC1=C(OC)C(=O)C(C/C=C(\C)CC/C=C(\C)CC/C=C(\C)CC/C=C(\C)CC/C=C(\C)CC/C=C(\C)CC/C=C(\C)CC/C=C(\C)CC/C=C(\C)CCC=C(C)C)=C(C)C1=O
inactive: endpoint: mean survival time, dose: 6.25 mg/kg/injection, schedule: Q01DX009 (ip), vehicle: saline with Tween-80 116 % of control and 97 % of control | [1] 98 % of control and 100 % of control | [2] 94 % of control and 100 % of control | [3] 97 % of control and 106 % of control | [10] 96 % of control | [4] 94 % of control and 102 % of control | endpoint: mean survival time, dose: 200.0 mg/kg/injection, schedule: Q01DX001 (ip), vehicle: saline 92 % of control | [5] 97 % of control and 100 % of control | endpoint: mean survival time, dose: 400.0 mg/kg/injection, schedule: Q01DX001 (ip), vehicle: saline 94 % of control

O=C(O)CN(CCO)CCO
inactive: endpoint: mean survival time, dose: 100.0 mg/kg/injection, schedule: Q04DX003 (ip), vehicle: saline 100 % of control | endpoint: mean survival time, dose: 200.0 mg/kg/injection, schedule: Q04DX003 (ip), vehicle: saline 102 % of control | endpoint: mean survival time, dose: 400.0 mg/kg/injection, schedule: Q04DX003 (ip), vehicle: saline 102 % of control

NCCCC(N)C(=O)O (stereo unspecified)
inactive: endpoint: median survival time, dose: 3.13 mg/kg/injection, schedule: Q04DX002 (ip), vehicle: saline 111 % of control | endpoint: median survival time, dose: 6.25 mg/kg/injection, schedule: Q04DX002 (ip), vehicle: saline 117 % of control | endpoint: median survival time, dose: 12.5 mg/kg/injection, schedule: Q04DX002 (ip), vehicle: saline 108 % of control | endpoint: median survival time, dose: 50.0 mg/kg/injection, schedule: Q04DX002 (ip), vehicle: saline 105 % of control

Cc1ccc2snc(C(=O)O)c2c1[N+](=O)[O-]
inactive: [11] 98 % of control | [12] 104 % of control | [13] 103 % of control

O=[N+]([O-])c1ccc2[nH]ncc2c1
inactive: [7] 103 % of control | [8] 92 % of control | [9] 100 % of control

CCOC(=O)C1=C(C)NC(C)=C(C(=O)OCC)C1c1ccccc1
inactive: [3] 98 % of control | endpoint: mean survival time, dose: 50.0 mg/kg/injection, schedule: Q04DX003 (ip), vehicle: saline with Tween-80 97 % of control | [4] 102 % of control | [11] 97 % of control and 100 % of control | [5] 102 % of control | [12] 90 % of control and 96 % of control | [13] 103 % of control

CC(=O)OCCN1CCN(CCCN2c3ccccc3Sc3ccc(C(F)(F)F)cc32)CC1
inactive: endpoint: mean survival time, dose: 2.6 mg/kg/injection, schedule: Q03HX024 (ip), vehicle: saline 108 % of control | endpoint: mean survival time, dose: 4.0 mg/kg/injection, schedule: Q03HX024 (ip), vehicle: saline 104 % of control | endpoint: mean survival time, dose: 6.0 mg/kg/injection, schedule: Q03HX024 (ip), vehicle: saline 121 % of control | endpoint: mean survival time, dose: 12.5 mg/kg/injection, schedule: Q01DX001 (ip), vehicle: saline 118 % of control and 105 % of control | endpoint: mean survival time, dose: 12.5 mg/kg/injection, schedule: Q01DX009 (ip), vehicle: saline 100 % of control | endpoint: mean survival time, dose: 25.0 mg/kg/injection, schedule: Q01DX001 (ip), vehicle: saline 117 % of control and 118 % of control | endpoint: mean survival time, dose: 25.0 mg/kg/injection, schedule: Q01DX009 (ip), vehicle: saline 95 % of control | endpoint: mean survival time, dose: 50.0 mg/kg/injection, schedule: Q01DX001 (ip), vehicle: saline 114 % of control | endpoint: mean survival time, dose: 50.0 mg/kg/injection, schedule: Q01DX009 (ip), vehicle: saline 89 % of control | [10] 109 % of control

CN(C)/N=N\c1c(C(N)=O)ncn1C1OC(CO)C(O)C1O (stereo unspecified)
inactive: endpoint: mean survival time, dose: 100.0 mg/kg/injection, schedule: Q01DX005 (ip), vehicle: saline 104 % of control | endpoint: mean survival time, dose: 200.0 mg/kg/injection, schedule: Q01DX005 (ip), vehicle: saline 95 % of control

c1cc2c3c(c1)-c1nc4ccccc4cc1CN3CCC2
inactive: [11] 98 % of control | [12] 101 % of control | [13] 97 % of control

C[C@@H]1C[C@@]2(C)[C@@H](CC[C@@H]3[C@@H]2CC[C@@]2(C)[C@H]3CC[C@]2(C)O)CC1=O
inactive: [2] 95 % of control | [3] 95 % of control | [4] 94 % of control | [11] 91 % of control

COC1OC2COc3ccccc3OC2C(N)C1SSC1C(OC)OC2COc3ccccc3OC2C1N (stereo unspecified)
inactive: endpoint: mean survival time, dose: 75.0 mg/kg/injection, schedule: Q01DX001 (ip), vehicle: saline with Tween-80 94 % of control | endpoint: mean survival time, dose: 150.0 mg/kg/injection, schedule: Q01DX001 (ip), vehicle: saline with Tween-80 95 % of control | endpoint: mean survival time, dose: 300.0 mg/kg/injection, schedule: Q01DX001 (ip), vehicle: saline with Tween-80 94 % of control

CC1(C)CN1P(=S)(N1CC1(C)C)N1CC1(C)C (stereo unspecified)
active: endpoint: mean survival time, dose: 338.0 mg/kg/injection, schedule: Q01DX001 (ip), vehicle: other 190 % of control and 277 % of control

COc1cc(/C=N/Nc2ccc([N+](=O)[O-])cc2)cc(OC)c1OC
inactive: [4] 97 % of control | [5] 94 % of control | [6] 98 % of control

CCOC(=O)NP(=O)(N1CC1(C)C)N1CC1(C)C (stereo unspecified)
active: endpoint: mean survival time, dose: 45.0 mg/kg/injection, schedule: Q01DX009 (ip), vehicle: saline 170 % of control | endpoint: mean survival time, dose: 90.0 mg/kg/injection, schedule: Q01DX009 (ip), vehicle: saline 232 % of control | endpoint: mean survival time, dose: 180.0 mg/kg/injection, schedule: Q01DX009 (ip), vehicle: saline 261 % of control
